Test [1] has as its system Mus musculus. The test can be described thus: In vivo activity was determined by measuring […] in mouse forebrain. Type of test: functional.
The next test has as its target Acetylcholinesterase (Homo sapiens, UniProt P22303).
For test [2], the species on record is Mus musculus. Description: animal or person.
Description: Tested for effective dose for elevation of Acetylcholinesterase (AChE) in mouse forebrain
For the next test, the target named is Butyrylcholinesterase (Equus caballus, UniProt Q9N1N9).
Test [3] has as its system Mus musculus. Description: Tested for effective dose for […] by peroral administration in vivo in mouse. The format is functional. Particulars: po.

Sequence of Acetylcholinesterase (P22303 whole entry): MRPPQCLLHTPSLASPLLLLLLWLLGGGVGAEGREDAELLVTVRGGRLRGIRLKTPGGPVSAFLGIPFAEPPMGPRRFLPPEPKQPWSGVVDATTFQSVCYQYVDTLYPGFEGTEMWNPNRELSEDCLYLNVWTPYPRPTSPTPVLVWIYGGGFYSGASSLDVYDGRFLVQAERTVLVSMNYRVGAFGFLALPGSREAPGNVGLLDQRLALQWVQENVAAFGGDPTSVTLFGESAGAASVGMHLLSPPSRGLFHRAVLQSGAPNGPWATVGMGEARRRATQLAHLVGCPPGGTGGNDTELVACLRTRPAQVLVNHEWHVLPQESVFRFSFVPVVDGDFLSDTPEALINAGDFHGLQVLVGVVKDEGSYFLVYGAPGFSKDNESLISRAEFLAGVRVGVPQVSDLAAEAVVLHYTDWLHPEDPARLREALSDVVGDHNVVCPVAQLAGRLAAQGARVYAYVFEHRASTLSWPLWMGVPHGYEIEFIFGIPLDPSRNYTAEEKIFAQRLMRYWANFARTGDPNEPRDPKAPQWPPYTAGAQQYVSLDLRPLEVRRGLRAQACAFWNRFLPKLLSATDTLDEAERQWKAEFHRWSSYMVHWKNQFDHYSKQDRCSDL
Sequence of Butyrylcholinesterase (Q9N1N9 whole entry): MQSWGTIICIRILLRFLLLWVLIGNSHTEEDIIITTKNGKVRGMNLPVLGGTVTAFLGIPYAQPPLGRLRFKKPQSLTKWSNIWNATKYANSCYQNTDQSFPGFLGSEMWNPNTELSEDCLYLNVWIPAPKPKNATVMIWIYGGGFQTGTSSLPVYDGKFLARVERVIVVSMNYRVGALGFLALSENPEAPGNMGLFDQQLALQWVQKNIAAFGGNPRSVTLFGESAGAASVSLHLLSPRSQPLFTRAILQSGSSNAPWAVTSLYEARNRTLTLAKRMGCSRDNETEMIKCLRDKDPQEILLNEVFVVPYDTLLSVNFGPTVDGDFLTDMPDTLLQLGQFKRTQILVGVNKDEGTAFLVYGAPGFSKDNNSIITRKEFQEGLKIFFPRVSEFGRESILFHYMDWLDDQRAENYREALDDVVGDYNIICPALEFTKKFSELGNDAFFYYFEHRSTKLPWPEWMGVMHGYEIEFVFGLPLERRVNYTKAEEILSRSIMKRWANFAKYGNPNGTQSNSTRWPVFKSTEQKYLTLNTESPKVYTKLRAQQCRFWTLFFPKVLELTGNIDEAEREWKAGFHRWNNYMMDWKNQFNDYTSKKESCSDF
Description for Acetylcholinesterase: Evaluated for the in vitro inhibition of the Acetylcholinesterase (AChE) from human erythrocytes
Description for Butyrylcholinesterase: Compound was evaluated for the in vitro inhibition of the Butyrylcholinesterase from horse serum

The ED50 is the midpoint of the dose-response relation. Read a low ED50 as an effect at a small dose. `O=C(Nc1ccc2c(CCC3CCN(Cc4ccccc4)CC3)noc2c1)c1ccccc1` came in with an ED50 in the test with Mus musculus [1] of over 100 mg/kg.
As a reminder, the IC50 is the point on the concentration scale where inhibition reaches its midpoint. The low end stands for greater potency, the high end for weaker potency. Regarding `N#Cc1ccc2c(CCC3CCN(Cc4ccccc4)CC3)noc2c1`, the IC50 against Acetylcholinesterase is 101 nM.
`COc1cc2c(cc1OC)C(=O)C(CC1CCN(Cc3ccccc3)CC1)C2` (stereo not drawn) [DONEPEZIL] came in with an ED50 in the test filed under Mus musculus [2] of 14 mg/kg.
At Acetylcholinesterase, `Brc1ccc2c(CCC3CCN(Cc4ccccc4)CC3)noc2c1` had an IC50 of 50 nM.
Turning to `c1ccc(CN2CCC(CCc3noc4cc(N5CCOCC5)ccc34)CC2)cc1`, the midpoint of inhibition against Butyrylcholinesterase, the IC50, lay at 4.7 µM.
Turning to `CNC(=O)Oc1ccc2c(c1)[C@]1(C)CCN(C)[C@@H]1N2C` [PHYSOSTIGMINE], at Butyrylcholinesterase, the IC50 turned out to be 0.073 µM.
The molecule `Cc1cc2onc(CCC3CCN(Cc4ccccc4)CC3)c2cc1C` displayed an IC50 against Acetylcholinesterase of 5.8 nM.
As to `Cc1ccc2onc(CCC3CCN(Cc4ccccc4)CC3)c2c1`, on Acetylcholinesterase, the half-inhibitory concentration (IC50) was found to be 7.8 nM.
Consider `CC(=O)Nc1ccc2c(CCC3CCN(Cc4ccccc4)CC3)noc2c1`, for which the IC50 on Acetylcholinesterase turned out to be 2.8 nM; at Butyrylcholinesterase it was 9 µM. This molecule also came in with a median effective dose (ED50) in the test on Mus musculus [3] of 2.4 mg/kg.
Regarding `O=S(=O)(Nc1ccc2c(CCC3CCN(Cc4ccccc4)CC3)noc2c1)c1ccccc1`, the IC50 on Acetylcholinesterase was found to be 14 nM.
The same measure, in the same setting: for `c1ccc(CN2CCC(CCc3ncnc4ccccc34)CC2)cc1` the value was 340 nM.

The values above are taken from ChEMBL document CHEMBL1127437, “Novel benzisoxazole derivatives as potent and selective inhibitors of acetylcholinesterase” (J Med Chem, 1994).
